Test [1] concerns IL-6. Briefly: IL-6 inhibition in LPS-stimulated human PBMCs (HTRF). The class given is cell-based. The following applies: PBMC; for EC50: huPBMCs, LPS 50 ng/mL, 22 hours, IL-6 HTRF; for inhibition at 10 µM: read-out: percent inhibition at 10 μM. The method, then:
Fresh Normal PB MNC (Catalog # PB001, AllCells, Alameda, Calif.) were shipped overnight at 4° C. and resuspended in Roswell Park Memorial Institute (RPMI) 1640 Medium, with GlutaMAX Supplement (Catalog #61870127, ThermoFisher Scientific, Waltham, Mass.) supplemented with 1% Penicillin-Streptomycin (Catalog #15140163, ThermoFisher Scientific, Waltham, Mass.) and 1% fetal bovine serum (FBS) (Catalog #16140089, ThermoFisher Scientific, Waltham, Mass.) assay media.
Compound Screening: Fresh normal human peripheral blood mononuclear cells (huPBMCs) were resuspended in 1% FBS-RPMI assay media with 1% Penicillin-Streptomycin 1% to a cell concentration of 1×10e6 cells/mL. […] 50 ng/mL of Lipopolysaccharides from Escherichia coli 0111:B4 (Catalog # L5293-2ML, Sigma-Aldrich, St. Louis, Mo.) was added after 2 hours and cells were incubated for another 22 hours at 37° C.-5% CO2. After 22 hour incubation, a mixture of anti-IL6 XL665 and anti-IL-6 Cryptate diluted in reconstitution buffer (Catalog #62IL6PEC, Cisbio Inc., Bedford, Mass.) was added to each well. Following incubation for 3 hours at room temperature, Homogeneous Time-Resolved Fluorescence (HTRF) was measured using the Envision (Perkin Elmer, Shelton, Conn.) at 665 nm and […]. The ratio of fluorescence at 665 nm to 620 nm was used as a readout for IL-6 quantification. All samples were processed in duplicate. Readings were normalized to DMSO treated cells and normalized activities were utilized for EC50 calculations. EC50 was determined using software generated by Dotmatics Limited (Windhill Bishops Stortford Herts, UK) using the Levenberg-Marquardt 4 parameter fitting procedure with finite different gradients.
Background: TR-FRET usually uses a lanthanide donor and a delayed reading to cut background.

For test [2], the system named is SW480 colon carcinoma cells. Nature of the test: Cell viability assay (CellTiter-Glo) in SW480 cells. The class given is cell-based. Particulars: Homo sapiens, 96 h; SW480 cell viability, four days, CellTiter-Glo. The method, then: Representative compounds were screened using the assay procedure to assess the effect on cell viability as described below.
SW480 colon carcinoma cells were transduced with a lentiviral vector expressing luciferase with a human Sp5 promoter consisting of a sequence of eight TCF/LEF binding sites. SW480 cells stably expressing the Sp5-Luc reporter gene and a hygromycin resistance gene were selected by treatment with 150 μg/mL of hygromycin for 7 days. These stably transduced SW480 cells were expanded in cell culture and used for all further screening activities.
For the Cell Viability Assays, the cells were plated at 2,000 cells/well in 384-well plates with a DMEM medium containing 1% fetal bovine serum, and 1% Penicillin-Streptomycin and incubated for […] at 37° C. and 5% CO2. Eight replicates of DMSO-treated cells served as controls and cells treated with compound were performed in duplicate.
After incubation, 10 μL of CellTiter-Glo (Promega) was added to each well allowed to incubate for approximately 12 minutes. This reagent “results in cell lysis and generation of a luminescent signal proportional to the amount of ATP present. The amount of ATP is directly proportional to the number of cells present in culture, in agreement with previous reports. The CellTiter-Glo Assay generates a “glow-type” luminescent signal, produced by the luciferase reaction (Promega.com)”.
(In general: ATP-based viability assays read luminescence as a measure of living cells.)

The target of test [3] is recombinant DYRK1A kinase (Homo sapiens (Human), UniProt Q13627). Nature of the test: DYRK1A kinase assay (Ser/Thr 18 peptide Z-lyte, FRET). The following applies: 30 μM ATP, one hour at room temperature, read-out: EC50 (μM) (IC50 per method). It counts as biochemical. The source says:
Representative compounds were screened using the assay procedure for DYRK1A kinase activity as described below.
The DYRK1A kinase assay was run using the Ser/Thr 18 peptide Z-lyte assay kit according to manufacturer's instructions (Life Technologies—a Division of Thermo-Fisher). This is a non-radioactive assay using fluorescence resonance energy transfer (FRET) between coumarin and fluorescein to detect kinase activity which is represented as a ratio of coumarin emission/fluorescein emission.
Briefly, recombinant DYRK1A kinase, ATP and Ser/Thr peptide 18 were prepared in 1× Kinase buffer to final concentrations of 0.19 μg/mL, 30 μM, and 4 μM respectively. The mixture was allowed to incubate with the representative compounds for one hour at room temperature. All reactions were performed in duplicate. Unphosphorylated (“0% Control”) and phosphorylated (“100% control”) forms of Ser/Thr 18 served as control reactions. Additionally, an 11-point dose-response curve of Staurosporine (1 uM top) was run to serve as a positive compound control.
After incubation, Development Reagent A was diluted in Development Buffer then added to the reaction and allowed to further incubate for one hour at room temperature. The plate was read at Ex 400 Em 455 to detect the coumarin signal and Ex 400 Em 520 to measure the signal (EnVision Multilabel Plate Reader, PerkinElmer).
The Emission ratio (Em) was calculated as a ratio of the coumarin (C) emission signal (at 445 nm)/Fluorescein (F) emission signal (at 520 nm). The percent phosphorylation was then calculated using the following formula: [1−((Em ratio×F100%)−C100%)/((C0%−C100%)+(Em ratio×(F100%−F0%)))].

Test [4] has as its target recombinant GSK3β kinase (Homo sapiens (Human), UniProt P49841). Nature of the test: GSK3β kinase assay (Ser/Thr 09 peptide Z-lyte, FRET). The class given is biochemical. Particulars: 46 μM ATP, one hour at room temperature, read-out: EC50 (μM) (IC50 per method). The source says:
Representative compounds were screened using the assay procedure for GSK3β kinase activity as described below.
The GSK3β kinase assay is run using the Ser/Thr 09 peptide Z-lyte assay kit according to manufacturer's instructions (Life Technologies—a Division of Thermo-Fisher). This is a non-radioactive assay using fluorescence resonance energy transfer (FRET) between coumarin and fluorescein to detect kinase activity which is represented as ratio of coumarin emission/fluorescein emission.
Briefly, recombinant GSK3β kinase, ATP and Ser/Thr peptide 09 are prepared in 1× Kinase buffer to final concentrations of 0.04 μg/mL, 46 μM, and 4 μM respectively. The mixture is allowed to incubate with the representative compounds for one hour at room temperature. All reactions were performed in duplicate. Unphosphorylated (“0% Control”) and phosphorylated (“100% control”) forms of […] serve as control reactions.
After incubation, diluted Development Buffer is added to the reaction and allowed to further incubate for one hour at room temperature. The plate is read at Ex 400 Em 455 to detect the coumarin signal and Ex 400 Em 520 to measure the signal (EnVision Multilabel Plate Reader, PerkinElmer).
The Emission ratio (Em) is calculated as a ratio of the coumarin (C) emission signal (at 445 nm)/Fluorescein (F) emission signal (at 520 nm). The percent phosphorylation is then calculated using the following formula: [1−((Em ratio×F100%)−C100%)/((C0%−C100%)+(Em ratio×(F100%−F0%)))].
Dose-response curves are generated and inhibitory concentration (IC50) values are calculated using non-linear regression curve fit in the Dotmatics' Studies Software (Bishops Stortford, UK).

Some results are limits rather than exact numbers.

Sequence of recombinant GSK3β kinase (P49841 whole entry): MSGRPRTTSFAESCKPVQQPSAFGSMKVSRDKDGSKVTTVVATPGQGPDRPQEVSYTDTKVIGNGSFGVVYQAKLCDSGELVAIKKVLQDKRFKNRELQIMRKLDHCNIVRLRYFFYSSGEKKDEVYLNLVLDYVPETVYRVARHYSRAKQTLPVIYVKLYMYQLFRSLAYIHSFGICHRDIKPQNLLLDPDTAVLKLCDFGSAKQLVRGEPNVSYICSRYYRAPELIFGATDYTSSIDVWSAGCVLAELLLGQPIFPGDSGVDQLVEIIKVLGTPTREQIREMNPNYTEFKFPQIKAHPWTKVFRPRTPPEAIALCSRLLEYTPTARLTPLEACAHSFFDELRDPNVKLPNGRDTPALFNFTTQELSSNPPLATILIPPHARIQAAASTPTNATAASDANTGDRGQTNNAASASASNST

The EC50 is the concentration needed to bring the measured effect to its halfway point. A higher EC50 goes with weaker potency. What is called inhibition is the share of the control response that was lost under treatment. What is called IC50 is the concentration at which inhibition is half-maximal. As to `O=C1CCc2cccc(c2)-c2cncc3[nH]c(nc23)-c2n[nH]c3ccc(cc23)-c2cncc(c2)N1` [Compound 3, (Z)-2^3H,3^1H-5-Aza-2(7,2)-imidazo[4,5-c]pyridina-3 (3,5)-indazola-4(3,5)-pyridina-1(1,3)-benzenacyclooctaphan-6-one], the EC50 is over 10000 nM in test [1] and 2760 nM in test [2]. The inhibition at 10 µM in test [1] is 43.7%. Besides, the IC50 is 0.01 µM in test [3] and 0.001 µM in test [4].

Turning to `O=C1COc2cccc(c2)-c2cncc3[nH]c(nc23)-c2n[nH]c3ccc(cc23)-c2cncc(c2)N1` [Compound 38, (Z)-2^3H,3^1H-8-Oxa-5-aza-2(7,2)-imidazo[4,5-c]pyridina-3(3,5)-indazola-4(3,5)-pyridina-1(1,3)-benzenacyclooctaphan-6-one], the figures for the EC50 in test [1] and in test [2] were 612 nM and 415 nM, respectively. Further, the IC50 in test [3] was found to be 0.005 µM; in test [4], 0.001 µM.

Turning to `Cn1ncc2c1CNCc1cccc(c1)-c1cccc3[nH]c(nc13)-c1n[nH]c3ccc-2cc13` [Compound 15, (Z)-Methyl-1^1H,2^1H,3^1H-6-aza-2(5,3),3 (2,4)-diindazola-1 (4,5)-pyrazola-4(1,3)-benzenacycloheptaphane], the half-maximal effective concentration (EC50) in test [1] came out at 585 nM; in test [2], 118 nM. Besides, the figures for the IC50 in test [3] and in test [4] were 0.111 µM and 0.01 µM, respectively.

Take `O=C1CCc2cccc(c2)-c2cccc3[nH]c(nc23)-c2n[nH]c3ccc(nc23)-c2cncc(c2)N1` [Compound 7, (Z)-2^1H,3^1H-8-Aza-2(5,3)-pyrazolo[4,3-b]pyridina-3 (2,4)-benzo[d]imidazola-1(3,5)-pyridina-4(1,3)-benzenacyclooctaphan-7-one]: the figures for the EC50 in test [1] and in test [2] were over 10000 nM and 455 nM, respectively. Also, in test [1], the inhibition at 10 µM amounted to 11.6%. Moreover, the IC50 in test [3] and in test [4] was over 10 µM throughout.

In the case of `c1cc2cc(c1)-c1cccc3[nH]c(nc13)-c1n[nH]c3ccc(cc13)-c1cncc(c1)OCCC2` [Compound 57], the EC50 amounted to 3010 nM in test [1] and 670 nM in test [2]. Besides, the IC50 in test [3] was over 10 µM; in test [4] it was 1.87 µM.

The record behind these values is patent publication US10759799B2, “Indazole containing macrocycles and therapeutic uses thereof” (Samumed, LLC, priority 2018, dated 2020).
